According to patent publication US4172829A, “2,9-Disubstituted adenine derivatives and their use as non-adrenergic bronchodilators” (Bristol-Myers Company, priority 1978, dated 1979):
Values after ≈ are worked out from the molar mass of the structure shown.

Key:
[1] = system: platelet aggregation; settings: Chem Pharm. Bull., 25(7), 1811-1821 (1977); cited from earlier work
[2] = system: intratracheal pressure (ITP) of guinea pig; test: In vivo bronchodilator activity, intratracheal pressure test (ITP); settings: Cavia porcellus, 50% decrease in intratracheal pressure
Method: (§1) The trachea of anesthetized guinea pig was cannulated and the ITP recorded on a polygraph under artificial ventilation. Arterial blood pressure (ABP; measure of hypotensive activity) was also measured during the experiment. Data was obtained for both intravenous and intraduodenal administration.

[3] = system: Tracheal chains of guinea pig; test: In vitro bronchodilator activity, isolated tracheal chain (ITC); assay type: cell-based; settings: Cavia porcellus, relaxation 50% of the maximum response to 0.1 mcg./ml. of isoproterenol
Method: Tracheal chains of guinea pig were prepared by the method described by A. Akcasu in Arch. Int. Pharmacodyn. Ther., 122, 201 (1959). The response to each test compound was recorded by the Magnus method and expressed as a percentage of the maximum response obtained with 0.1 mcg./ml. of isoproterenol prior to each experiment.

[4] = Separation of bronchodilator and cardiovascular effects (ABP/ITP); settings: guinea pig, in vivo, ratio of hypotensive ED20 / bronchodilating ED50
Method: To assess the separation of desirable bronchodilator activity from undesirable cardiovascular (hypotensive) effect in the test compounds, the ratio of hypotensive ED20 /bronchodilating ED50 was calculated and indicated in Table 1.

[5] = system: Arterial blood pressure (ABP); test: In vivo hypotensive activity, arterial blood pressure (ABP); design: species or system guinea pig; settings: arterial blood pressure lowering, ED20, reduces ABP by 20%
Method: as §1, with “Pharmac., 21, 379 (1969). The” for “The”

[6] = system: bronchial constriction; settings: prior art; bronchial asthma; cited from earlier work
[7] = prior art; cited from earlier work
[8] = known disadvantages, prior art; cited from earlier work

Row | Compound | EC50 [3] [mg/L] | inhibition of platelet aggregation (in words) [1] | ED50 ([2]; intravenous) [mg/kg] | selectivity ratio ([4]; intravenous) | ED20 ([5]; intravenous) [mg/kg] | ED50 ([2]; intraduodenal) [mg/kg] | selectivity ratio ([4]; intraduodenal) | ED20 ([5]; intraduodenal) [mg/kg] | bronchodilator activity (in words) [6] | solubility (in words) [7] | side effects (in words) [8]
1 | Nc1nc(SC2CCCC2)nc2c1ncn2C1CCCC1 | – | slightly effective | – | – | – | – | – | – | – | – | –
2 | CCOc1nc(N)c2ncn(C3C=CCCC3)c2n1 (stereo not shown) [C2 H5 O / drawing 31, 9-(2-Cyclohexenyl)-2-ethoxy-9H-adenine] | 0.088 (≈ 0.339 µM) | – | 0.33 | 12 | 4.0 | 0.62 | 19 | 12 | – | – | –
3 | Nc1nc(Cl)nc2c1ncn2C1C=CCCC1 (stereo not shown) [Cl / drawing 31, 2-Chloro-9-(2-cyclohexenyl)-9H-adenine] | 0.12 (≈ 0.481 µM) | – | 0.15 | 17 | 2.5 | – | – | – | – | – | –
4 | Cn1c(=O)c2[nH]cnc2n(C)c1=O [Theophylline] | – | – | – | – | – | – | – | – | potent and useful non-adrenergic bronchodilator | – | –
5 | Cn1c(=O)c2[nH]cnc2n(C)c1=O [aminophylline] | 16.6 (≈ 92.1 µM) | – | – | – | – | – | – | – | effective bronchodilator when given orally | readily soluble | gastric irritation and cardiovascular and central nervous system side effects
6 | CC(C)COc1nc(N)c2ncn(C3CCCCC3)c2n1 [isO-C4 H9 O / drawing 30, 2-Isobutoxy-9-cyclohexyl-9H-adenine] | 0.31 (≈ 1.07 µM) | – | > 3 | – | > 3 | – | – | – | – | – | –
7 | CC(C)COc1nc(N)c2ncn(C3C=CCCC3)c2n1 (stereo not shown) [iso-C4 H9 O / drawing 31, 9-(2-Cyclohexenyl)-2-isobutoxy-9H-adenine] | 0.41 (≈ 1.43 µM) | – | > 3 | – | 2.4 | – | – | – | – | – | –
8 | CCCCOc1nc(N)c2ncn(C3CCCCC3)c2n1 [n-C4 H9 O / drawing 30, 2-n-Butoxy-9-cyclohexyl-9H-adenine] | 0.025 (≈ 0.0864 µM) | – | 0.003 | 1470 | 4.4 | 1.4 | 5.9 | 8.3 | – | – | –
9 | CCCCOc1nc(N)c2ncn(C3C=CCCC3)c2n1 (stereo not shown) [n-C4 H9 O / drawing 31, 9-(2-Cyclohexenyl)-2-n-butoxy-9H-adenine] | 0.045 (≈ 0.157 µM) | – | 0.65 | > 4.8 | > 3 | – | – | – | – | – | –

Continued, in another order:

Row | EC50 [3] [mg/L] | Compound | inhibition of platelet aggregation (in words) [1] | ED50 ([2]; intravenous) [mg/kg] | selectivity ratio ([4]; intravenous) | ED20 ([5]; intravenous) [mg/kg] | ED50 ([2]; intraduodenal) [mg/kg] | selectivity ratio ([4]; intraduodenal) | ED20 ([5]; intraduodenal) [mg/kg] | bronchodilator activity (in words) [6] | solubility (in words) [7] | side effects (in words) [8]
10 | 0.18 (≈ 0.689 µM) | CCOc1nc(N)c2ncn(C3CCCCC3)c2n1 [C2 H5 O / drawing 30, 2-Ethoxy-9-cyclohexyl-9H-adenine] | – | 0.37 | 6.8 | 2.5 | – | – | – | – | – | –
11 | 0.026 (≈ 0.0944 µM) | CCCOc1nc(N)c2ncn(C3CCCCC3)c2n1 [n-C3 H7 O / drawing 30, 9-Cyclohexyl-2-n-propoxy-9H-adenine] | – | 0.37 | 12 | 4.4 | 1.2 | 15 | 18 | – | – | –
12 | 0.027 (≈ 0.0988 µM) | CCCOc1nc(N)c2ncn(C3C=CCCC3)c2n1 (stereo not shown) [n-C3 H7 O / drawing 31, 9-(2-Cyclohexenyl)-2-n-propoxy-9H-adenine] | – | 0.34 | 5.9 | 2.0 | 1.2 | 2 | 2.4 | – | – | –
13 | 1.8 (≈ 5.93 µM) | CCCCCOc1nc(N)c2ncn(C3CCCCC3)c2n1 [n-C5 H11 O / drawing 30, 2-n-Pentyloxy-9-cyclohexyl-9H-adenine] | – | > 3 | – | > 3 | – | – | – | – | – | –
14 | 0.59 (≈ 1.96 µM) | CCCCCOc1nc(N)c2ncn(C3C=CCCC3)c2n1 (stereo not shown) [n-C5 H11 O / drawing 31, 9-(2-Cyclohexenyl)-2-n-pentyloxy-9H-adenine] | – | > 3 | – | > 3 | – | – | – | – | – | –
15 | 1.4 (≈ 4.41 µM) | CCCCCCOc1nc(N)c2ncn(C3CCCCC3)c2n1 [n-C6 H13 O / drawing 30, 2-n-Hexyloxy-9-cyclohexyl-9H-adenine] | – | > 3 | – | > 3 | – | – | – | – | – | –
16 | > 3 | CCCCCCOc1nc(N)c2ncn(C3C=CCCC3)c2n1 (stereo not shown) [n-C6 H13 O / drawing 31, 9-(2-Cyclohexenyl)-2-n-hexyloxy-9H-adenine] | – | > 3 | – | 2.7 | – | – | – | – | – | –
